Test results as given in article PMC7700423, “Differential Effects of 1α,25-Dihydroxyvitamin D3 on the Expressions and Functions of Hepatic CYP and UGT Enzymes and Its Pharmacokinetic Consequences In Vivo” (Pharmaceutics, 2020).

Tests used:
[1] = Pharmacokinetics of BUP and HBUP after intravenous BUP in rats; type: in vivo, rat; details: for CL renal: plasma and urine; for AUC: n = 6-7; for Vd: read-out: Vss; for Ae0-24h: urine 0-24 h; for Tmax: median (range)
Description: Male Sprague-Dawley (SD) rats (8 weeks, 260–280 g) were purchased from Nara Biotech Co. (Seoul, Korea). Animals were maintained in cages under controlled conditions under a 12-h dark/light cycle with free access to food and tap water, acclimated for at least five days in the laboratory before experiments, and allocated to a control group or 1,25(OH)2D3-treated group. The 1,25(OH)2D3 dosing solution was prepared by diluting 1,25(OH)2D3 in ethanol with 5 mL of corn oil (2.56 nmol/mL of final concentration). The dosing solution for the control group was prepared but the 1,25(OH)2D3 was omitted. The dosing solutions were administered intraperitoneally to rats at a dose of 1 mL/kg/day (2.56 nmol/kg/day as 1,25(OH)2D3) over four consecutive days. On the fifth day, rats were used for pharmacokinetic study.
In vivo pharmacokinetic animal experiments were accomplished according to the Guide for the Care and Use of Laboratory Animals issued by the National Institute of Health, as described previously. Before starting the animal studies, all experimental protocols were reviewed and approved by the Animal Care and Use Committee of Gachon University (Approval no. GIACUC-R2019020; approved on July 1st, 2019). SD male rats (8–9 weeks, 250–300 g, Nara Biotech Co., Seoul, South Korea) had free access to food and water, acclimatized and maintained in the room under a 12-h light/dark cycle for a week before the study. After pretreatment with 1,25(OH)2D3 for 4 continuous days, the rats in the control and 1,25(OH)2D3 groups were anesthetized with Zoletil® (Vibrac, TX, USA) (10 mg/kg i.m.) and then the femoral vein and artery were cannulated with polyethylene tubing (Clay Adams, NJ, USA) for drug administration and blood sampling, respectively, as described previously. The pharmacokinetic experiment was initiated by drug administration after the rats were recovered from anesthesia. […] Approximately 100 μL of blood was collected via the femoral artery at 0, 1, 5, 15, 30, 60, 120, 180, 240, 360, 480, and 600 min after the drug administration. […] Blood samples were collected at 0, 1, 5, 15, 30, 60, 90, 120, 180, 240, 360, and 480 min later and immediately centrifuged at 14,000× g for 15 min at 4 °C. For compensation of fluid loss, a same volume of saline was intravenously provided after each sample collection. Plasma was then separated from whole blood cells and stored at −20 °C for further analysis. Urine samples were collected 0–4, 4–8, and 8–24 h after drug administration. The collected urine samples were diluted with distilled deionized water (DDW) 20-fold prior to LC-MS/MS analysis. […] The weighted tissues were homogenized on ice by an electric homogenizer following adding 2-fold volume of PBS. The homogenates were stored before LC-MS/MS analysis.
(§1) Moreover, CLNR was calculated to subtract CLR from CL.

[2] = Pharmacokinetics of TOL and HTOL after intravenous TOL in rats; type: in vivo, rat; details: for Tmax: median (range); for Ae0-24h: urine 0-24 h; for Vd: read-out: Vss
Description: (§2) Male Sprague-Dawley (SD) rats (8 weeks, 260–280 g) were purchased from Nara Biotech Co. (Seoul, Korea). […] The dosing solution for the control group was prepared but the 1,25(OH)2D3 was omitted. […] On the fifth day, rats were used for pharmacokinetic study.
(§3) In vivo pharmacokinetic animal experiments were accomplished according to the Guide for the Care and Use of Laboratory Animals issued by the National Institute of Health, as described previously. […] After pretreatment with 1,25(OH)2D3 for 4 continuous days, the rats in the control and 1,25(OH)2D3 groups were anesthetized with Zoletil® (Vibrac, TX, USA) (10 mg/kg i.m.) and then the femoral vein and artery were cannulated with polyethylene tubing (Clay Adams, NJ, USA) for drug administration and blood sampling, respectively, as described previously. The pharmacokinetic experiment was initiated by drug administration after the rats were recovered from anesthesia. […] Approximately 100 μL of blood was collected via the femoral artery at 0, 1, 5, 15, 30, 60, 120, 180, 240, 360, 480, and 600 min after the drug administration. […] For compensation of fluid loss, a same volume of saline was intravenously provided after each sample collection. Plasma was then separated from whole blood cells and stored at −20 °C for further analysis. […] The collected urine samples were diluted with distilled deionized water (DDW) 20-fold prior to LC-MS/MS analysis. […] The weighted tissues were homogenized on ice by an electric homogenizer following adding 2-fold volume of PBS. The homogenates were stored before LC-MS/MS analysis.
as §1

[3] = Tissue distribution of TOL and HTOL in rats; type: in vivo, rat; details: for Tissue to plasma concentration ratio (Kp), Liver: n = 4-6
Description: as §2, §3

Cyp2c11 = biological target: T1, Cyp2c11 (Rattus norvegicus, UniProt P08683); experiment: Tolbutamide 4-hydroxylation (HTOL formation) in rat liver microsomes; details: for CLint: n = 3
T1 sequence (P08683 1-500): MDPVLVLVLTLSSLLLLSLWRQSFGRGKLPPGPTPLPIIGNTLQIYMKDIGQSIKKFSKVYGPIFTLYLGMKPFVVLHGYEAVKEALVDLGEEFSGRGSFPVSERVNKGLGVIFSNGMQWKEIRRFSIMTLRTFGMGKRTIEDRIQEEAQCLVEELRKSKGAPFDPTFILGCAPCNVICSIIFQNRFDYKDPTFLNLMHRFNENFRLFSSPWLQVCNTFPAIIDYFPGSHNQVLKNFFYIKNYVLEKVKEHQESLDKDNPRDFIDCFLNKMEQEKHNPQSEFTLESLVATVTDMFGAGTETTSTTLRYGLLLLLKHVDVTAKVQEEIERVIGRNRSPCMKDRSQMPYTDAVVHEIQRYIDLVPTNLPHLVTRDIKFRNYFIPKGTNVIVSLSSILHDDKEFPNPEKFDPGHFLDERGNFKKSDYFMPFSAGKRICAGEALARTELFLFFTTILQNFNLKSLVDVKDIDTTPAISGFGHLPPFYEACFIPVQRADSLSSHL

[4] = i.v. 5 mg/kg BUP, 1,25(OH)2D3-treated rats
[5] = male, Sprague-Dawley, rat, plasma, iv, 5 mg/kg, i.v. 5 mg/kg BUP, 1,25(OH)2D3-treated rats
[6] = male, Sprague-Dawley, rat, plasma, iv, 5 mg/kg, i.v. 5 mg/kg BUP, control rats
[7] = formed metabolite, i.v. 2 mg/kg TOL, 1,25(OH)2D3-treated rats
[8] = formed metabolite, i.v. 2 mg/kg TOL, control rats
[9] = i.v. 2 mg/kg TOL, 1,25(OH)2D3-treated rats
[10] = 8 h after i.v. 2 mg/kg TOL, 1,25(OH)2D3-treated rats
[11] = 8 h after i.v. 2 mg/kg TOL, control rats
[12] = male, Sprague-Dawley, rat, plasma, iv, 2 mg/kg, i.v. 2 mg/kg TOL, 1,25(OH)2D3-treated rats
[13] = male, Sprague-Dawley, rat, plasma, iv, 2 mg/kg, i.v. 2 mg/kg TOL, control rats

In the case of `CC(NC(C)(C)C)C(=O)c1cccc(Cl)c1` (stereo not drawn) [BUP, bupropion], the “Renal clearance as portion of total clearance” value ([1]; 1,25(OH)2D3-treated rats) is reported as 1.92%, the “Renal clearance as portion of total clearance” value ([1]; control rats) is reported as 0.7% and the CLNR [1, 4] is reported as 53.55 ± 13.02 mL/min/kg. It also gave a CLNR ([1]; i.v. 5 mg/kg BUP, control rats) of 93.08 ± 13.73 mL/min/kg, a CL renal ([1]; male, Sprague-Dawley, rat, iv, 5 mg/kg, i.v. 5 mg/kg BUP, 1,25(OH)2D3-treated rats) of 1.05 ± 0.407 mL/min/kg and a CL renal ([1]; male, Sprague-Dawley, rat, iv, 5 mg/kg, i.v. 5 mg/kg BUP, control rats) of 0.662 ± 0.635 mL/min/kg. It also gave an MRT [1, 5] of 1.47 h, a clearance [1, 5] of 54.6 ± 13.4 mL/min/kg and a half-life [1, 5] of 2.24 ± 0.812 h. It also gave an AUC ([1]; male, Sprague-Dawley, rat, plasma, iv, 5 mg/kg, i.v. 5 mg/kg BUP, 1,25(OH)2D3-treated rats, read-out: AUC (converted)) of 1610 ng·h/mL, a Vd [1, 5] of 5.4 ± 1.87 L/kg and an MRT [1, 6] of 1.19 h. For the same compound, the clearance [1, 6] was 93.6 ± 14.2 mL/min/kg, the half-life [1, 6] was 2.59 ± 0.432 h and the AUC ([1]; male, Sprague-Dawley, rat, plasma, iv, 5 mg/kg, i.v. 5 mg/kg BUP, control rats, read-out: AUC (converted)) was 906 ng·h/mL. The Vd [1, 6] was 7.82 ± 1.95 L/kg, the Ae0-24h [1, 4] was 1.791 ± 0.031 % of dose and the Ae0-24h ([1]; i.v. 5 mg/kg BUP, control rats) was 0.719 ± 0.613 % of dose.
With `C[C@H]1NC(C)(C)CO[C@]1(O)c1cccc(Cl)c1` [HBUP, hydroxybupropion] the CLR [1, 4] was 0.077 ± 0.031 mL/min/kg, the Cmax [1, 4] was 68 ± 21 ng/mL and the t1/2 [1, 4] was 3.283 ± 0.903 h. It also gave an AUC [1, 4] of 329.5 ± 151 ng·h/mL, a CLR ([1]; i.v. 5 mg/kg BUP, control rats) of 0.222 ± 0.124 mL/min/kg and a Cmax ([1]; i.v. 5 mg/kg BUP, control rats) of 46 ± 32 ng/mL. For the same compound, the t1/2 ([1]; i.v. 5 mg/kg BUP, control rats) was 2.673 ± 0.627 h, the AUC ([1]; i.v. 5 mg/kg BUP, control rats) was 76.83 ± 31.63 ng·h/mL and the Tmax [1, 4] was 15 (15–60) min. The Tmax ([1]; i.v. 5 mg/kg BUP, control rats) was 15 min, the Ae0-24h [1, 4] was 0.026 ± 0.008 % of dose and the Ae0-24h ([1]; i.v. 5 mg/kg BUP, control rats) was 0.015 ± 0.007 % of dose.
`CCCCNC(=O)NS(=O)(=O)c1ccc(CO)cc1` [HTOL, 4-hydroxytolbutamide] gave an AUC [2, 7] of 151.9 ± 52.0 µg·min/mL, a CLR [2, 7] of 0.873 ± 0.134 mL/min/kg and an AUC [2, 8] of 100.8 ± 65.2 µg·min/mL. The CLR [2, 8] was 2.713 ± 0.570 mL/min/kg, the Cmax [2, 9] was 207 ± 119 ng/mL and the t1/2 [2, 9] was 10.5 ± 8.193 h. For the same compound, the Cmax ([2]; i.v. 2 mg/kg TOL, control rats) was 167 ± 67 ng/mL, the t1/2 ([2]; i.v. 2 mg/kg TOL, control rats) was 8.688 ± 8.317 h and the Tmax [2, 9] was 120 (60–240) min. The Tmax ([2]; i.v. 2 mg/kg TOL, control rats) was 60 (15–120) min, the Ae0-24h [2, 9] was 5.539 ± 2.305 % of dose and the Ae0-24h ([2]; i.v. 2 mg/kg TOL, control rats) was 9.356 ± 0.471 % of dose. The “Tissue to plasma concentration ratio (Kp), Brain” value [3, 10] was 0.019 ± 0.004, the “Tissue to plasma concentration ratio (Kp), Heart” value [3, 10] was 0.252 ± 0.036 and the “Tissue to plasma concentration ratio (Kp), Kidney” value [3, 10] was 7.768 ± 0.014. The “Tissue to plasma concentration ratio (Kp), Spleen” value [3, 10] was 0.163 ± 0.008, the “Tissue to plasma concentration ratio (Kp), Liver” value [3, 10] was 0.657 ± 0.129 and the “Tissue to plasma concentration ratio (Kp), Brain” value [3, 11] was 0.020 ± 0.008. The “Tissue to plasma concentration ratio (Kp), Heart” value [3, 11] was 0.175 ± 0.013, the “Tissue to plasma concentration ratio (Kp), Kidney” value [3, 11] was 5.335 ± 1.127 and the “Tissue to plasma concentration ratio (Kp), Spleen” value [3, 11] was 0.137 ± 0.010. The “Tissue to plasma concentration ratio (Kp), Liver” value [3, 11] was 0.831 ± 0.152.
Compound `CCCCNC(=O)NS(=O)(=O)c1ccc(C)cc1` [TOL, tolbutamide] has a CLNR [2, 9] of 0.206 ± 0.045 mL/min/kg, a CLNR ([2]; i.v. 2 mg/kg TOL, control rats) of 0.189 ± 0.030 mL/min/kg and a clearance [2, 12] of 0.206 ± 0.045 mL/min/kg. It also gave a half-life [2, 12] of 9.4 ± 3.46 h, an AUC ([2]; male, Sprague-Dawley, rat, plasma, iv, 2 mg/kg, i.v. 2 mg/kg TOL, 1,25(OH)2D3-treated rats, n = 9-10, read-out: AUC (converted)) of 10200 µg·min/mL and a Vd [2, 12] of 0.153 ± 0.0195 L/kg. The MRT [2, 13] was 11 h, the clearance [2, 13] was 0.189 ± 0.027 mL/min/kg and the half-life [2, 13] was 7.71 ± 2.56 h. The AUC ([2]; male, Sprague-Dawley, rat, plasma, iv, 2 mg/kg, i.v. 2 mg/kg TOL, control rats, n = 9-10, read-out: AUC (converted)) was 10800 µg·min/mL, the Vd [2, 13] was 0.12 ± 0.0156 L/kg and the CL renal ([2]; male, Sprague-Dawley, rat, urine and plasma, iv, 2 mg/kg) was 0.000208 ± 0.000103 mL/min/kg. For the same compound, the Ae0-24h [2, 9] was 0.024 ± 0.016 % of dose, the Ae0-24h ([2]; i.v. 2 mg/kg TOL, control rats) was 0.124 ± 0.059 % of dose and the CLint (Cyp2c11; RLMs from 1,25(OH)2D3-treated rats) was 0.89 ± 0.18 μL/min/mg protein. The CLint (Cyp2c11; RLMs from control rats) was 3.00 ± 0.63 μL/min/mg protein and the “CLint lower in 1,25(OH)2D3-treated rats than in controls” value (Cyp2c11; RLMs, p = 0.0051) was 70%.
